Experimental data: patent US20030224398A1, “Purification of the leading front of migratory cells” (priority 2002, published 2003)

Tests used:
NIH 3T3 cells [1] = experiment: Cell migration through 8.0-μm porous Boyden chambers, gradient or uniform chemokine; type: cell-based, mouse; details: for chemoattractant activity (directed cell migration toward a gradient) / random cell migration: NIH 3T3, 8.0-μm pores; for chemoattractant activity (directed cell migration toward a gradient): 3 h; for random cell migration: uniform concentration
Experimental: (§1) Pseudopodia extension was monitored using a pseudopodia assay kit (ECM 650; Chemicon International) or Costar chambers. Serum-starved cells (75,000) were placed into the upper compartment of a chamber ([…]) equipped with a 3.0-μm porous polycarbonate membrane coated on both sides with an optimal amount of ECM protein (5 μg/ml fibronectin or collagen type I). Cells were allowed to attach and spread on the upper surface of the membrane for 2 h, and then stimulated with LPA (Sigma-Aldrich), insulin, or buffer only, which was placed in the lower chamber to establish a gradient or placed in the upper and lower chamber to form a uniform concentration. Cells were allowed to extend pseudopodia through the pores toward the direction of the gradient for various times. To initiate pseudopodia retraction, the chemoattractant was removed or an equivalent amount of chemoattractant placed in the upper chamber to create a uniform concentration. The cell body on the upper surface was manually removed with a cotton swab and the total pseudopodia protein only on the undersurface was determined using BCA and a microprotein assay system (Pierce Chemical Co.). Additionally, pseudopodia can be stained with 1% crystal violet in 2% ethanol and then the dye eluted with 10% acetic acid, which can be measured in an ELISA plate reader (OD 600) for comparison to a standard curve as previously described (Klemke et al., 1998).
(§2) NIH 3T3 cells were examined for cell migration for 3 h in 8.0-μm porous Boyden chambers containing different concentrations of LPA or insulin placed in 1) the bottom, 2) top, or 3) top and bottom compartments. The number of migratory cells per microscopic field (200×) on the underside of the membrane was counted as described in Example 1 above. Additionally, COS-7 cells were examined for cell migration as described above with respect to NIH 3T3 cells. […] In FIG. 1, each point on the graphs represents the mean±SEM of three triplicate migration chambers of three independent experiments.

COS-7 cells = experiment: as above; type: cell-based; details: for chemoattractant activity (directed cell migration toward a gradient) / random cell migration: COS-7, 8.0-μm pores; for random cell migration: uniform concentration
Experimental: as §1, §2

NIH 3T3 cells [2] = experiment: Pseudopodia extension through 3.0-μm porous membranes toward LPA; type: cell-based, mouse; details: 3.0-μm pores
Experimental: as §1
NIH 3T3 cells were allowed to attach to fibronectin coated 3.0-μm porous membranes for 2 h. Pseudopodia extension was then examined for various times in the absence (NT) or presence of LPA (100 ng/ml) in the bottom, top, or top and bottom compartments. Pseudopodia protein on the underside of the membrane was determined as described in Example 1. Results are set forth in FIG. 2, where each point in the graphs represents the mean±SEM of three triplicate membranes of three independent experiments. COS-7 cells were examined for pseudopodia protrusion in the same manner as for NIH 3T3 cells as described above.
Confocal images of NIH 3T3 pseudopodia protrusion on the undersurface of a 3.0-μm porous membrane in response to LPA (100 ng/ml) as a gradient (LPA bottom) or uniform concentration (LPA top and bottom) were generated. Cells were labeled with cell tracker green and then fixed at the indicated times to visualize protruding pseudopodia on the undersurface of the membrane.

NIH 3T3 cells [3] = experiment: Pseudopodia retraction after removal of the LPA gradient; type: cell-based, mouse
Experimental: as §1
Pseudopodia retraction was studied via the following methods. Pseudopodia extension of NIH 3T3 cells through 3.0-μm pores toward an LPA gradient was examined at 60, 120, 180 and 240 minutes, or the LPA gradient was removed after 60 min and pseudopodia were allowed to retract for the indicated times (LPA Removed). Total pseudopodia protein on the underside of the membrane was determined as described in Example 1.
Pseudopodia were allowed to extend for 60 min (time 0) toward an LPA gradient as described above. The gradient was then removed and pseudopodia were fixed at the indicated times (0, 30, 60, 120 minutes). […]

[4] = listed as lysophosphatidic acid
[5] = LPA gradient removed after 60 min extension

Substance | chemoattractant activity (directed cell migration toward a gradient) (NIH 3T3 cells [1]) | random cell migration (NIH 3T3 cells [1]) | chemoattractant activity (directed cell migration toward a gradient) (COS-7 cells) | random cell migration (COS-7 cells) | chemoattractant activity (directed cell migration toward a gradient) (NIH 3T3 cells [1]; listed as LSA) | chemoattractant activity (directed cell migration toward a gradient) (NIH 3T3 cells [1]; [4]) | concentration at which chemotaxis reached a maximum (NIH 3T3 cells [1]; NIH 3T3, dose dependent) [ng/mL] | chemoattractant activity (directed cell migration toward a gradient) (COS-7 cells; listed as LSA) | chemoattractant activity (directed cell migration toward a gradient) (COS-7 cells; [4]) | concentration at which chemotaxis reached a maximum (COS-7 cells; COS-7, dose dependent) [ng/mL] | pseudopodia extension, gradient versus uniform concentration (NIH 3T3 cells [2]; LPA gradient but not uniform concentration) | time at which extension of pseudopodia was first detected after exposure to the gradient (NIH 3T3 cells [2]; LPA gradient) [min] | time over which pseudopodia extension proceeded linearly (NIH 3T3 cells [2]; LPA gradient) [min] | cells polarized by extending pseudopodia (NIH 3T3 cells [2]; LPA gradient, confocal microscope) [%] | cells displaying pseudopodia retraction (NIH 3T3 cells [3]; [5]) [%] | onset of pseudopodia retraction after removing the gradient (NIH 3T3 cells [3]; [5]) [min] | effect of restoring the gradient on retracting pseudopodia (NIH 3T3 cells [3]; LPA gradient restored after removal)
insulin | poor chemoattractant | promoted random migration | poor chemoattractant | promoted random migration | – | – | – | – | – | – | – | – | – | – | – | – | –
lysophosphatidic acid [LPA] | true chemoattractant | does not facilitate random cell migration | true chemoattractant | does not facilitate random cell migration | potent chemoattractant | potent chemoattractant | 100 to 200 | potent chemoattractant | potent chemoattractant | 100 to 200 | extend pseudopodia through small pores specifically in the direction of the gradient | 10 to 15 | 60 to 90 | > 90 | > 80 | ≤ 5 | inhibited the retraction process and induced pseudopodia growth
